Consider three molecules from patent US20130273196A1, “Pet Food Compositions for Inducing a Satiety Response” (HILL'S PET NUTRITION, INC, priority 2010, published 2013).

Molecules are shown by their SMILES.

One test has as its system NPY1R. The test is described as follows: Affymetrix canine GeneChip gene expression analysis in canine cell lines, NPY1R. It counts as cell-based. As to conditions: in two cell lines tested, amount tested 0.005 mg/mL, 0.025 mg/mL. As for the experimental part: Gene expression was analyzed using Affymetrix Canine 1 and Canine 2 GeneChip Arrays available commercially from Affymetrix, Inc., Santa Clara, Calif. 95051. Total RNA is reverse transcribed into cDNA. The cDNA is used to generate cRNA which is fragmented and used as probes for GeneChip hybridization. The gene chip is washed and the hybridization signal is measured with an Affymetrix laser scanner. The hybridization data is then validated and normalized for further analysis.
Materials: Affymetrix provided most of the reagents and kit. Other reagents listed in the Affymetrix Manual but not supplied in the kit were obtained separately. Refer to GeneChip Expression Analysis Technical Manual (701021 Rev. 4) for the details. […]
Affymetrix canine gene chips Canine-1 and Canine-2 are used to determine the effect of various test substances or ingredients on gene expression in four canine cell lines and appropriate controls. […] Gene expression was measured for the treatment cell lines and controls. The gene expression data was determined to be either “up” or “down”-regulated for any given treatment. The decision on whether a gene is “up” or “down” is based on the fold change, which is calculated as treatment intensity/control intensity for each individual probe.

The subject of the next test is NPY5R. The test is described as follows: Affymetrix canine GeneChip gene expression analysis in canine cell lines, NPY5R. The class given is cell-based. As for the experimental part:
Gene expression was analyzed using Affymetrix Canine 1 and Canine 2 GeneChip Arrays available commercially from Affymetrix, Inc., Santa Clara, Calif. 95051. Total RNA is reverse transcribed into cDNA. The cDNA is used to generate cRNA which is fragmented and used as probes for GeneChip hybridization. The gene chip is washed and the hybridization signal is measured with an Affymetrix laser scanner. The hybridization data is then validated and normalized for further analysis. Materials: Affymetrix provided most of the reagents and kit. Other reagents listed in the Affymetrix Manual but not supplied in the kit were obtained separately. Refer to GeneChip Expression Analysis Technical Manual (701021 Rev. 4) for the details. Equipment: Eppendorf Microcentrifuge, 1.5 mL DNase and RNase free/sterile microcentrifuge tubes, 50 mL DNase and RNase free/sterile disposable polypropylene tubes, P1000, […] and P2 Rainin Pipetman pipettes, Filter pipette tips for P1000, […] and P2 pipettes, DNase and RNase free/sterile, and Peltier Thermal Cycler PTC-200. Procedure: All procedures followed exactly as described in GeneChip Expression Analysis Technical Manual (Affymetrix Copyright 1999-2003). 5 micrograms of total RNA were used for the first strand cDNA synthesis. Used either Peltier Thermal Cycler PTC-200 or heat block for temperature control on reactions and probe denaturing. The quality control was performed using RNA NanoDrop chips with BioAnalyer 2100. Used 100 Format (Midi Array) for the canine genechip. […] The solvent at the higher of the two concentrations was used as a control. […] Gene expression was measured for the treatment cell lines and controls. The gene expression data was determined to be either “up” or “down”-regulated for any given treatment. The decision on whether a gene is “up” or “down” is based on the fold change, which is calculated as treatment intensity/control intensity for each individual probe.

As for `CC/C=C\C/C=C\C/C=C\C/C=C\C/C=C\CCCC(=O)O` [EPA], the Fold change with NPY1R is given as −1.43 (in two cell lines; in the test with NPY5R (in two cell lines tested, amount tested 0.005 mg/mL, 0.025 mg/mL), −1.82 (in two cell lines.

As for `O=C(O[C@@H]1Cc2c(O)cc(O)cc2O[C@@H]1c1cc(O)c(O)c(O)c1)c1cc(O)c(O)c(O)c1` [Epigallocatechin Gallate, epigallocatechin gallate], the Fold change in the test on NPY5R (in all cell lines tested, amount tested 20 ng/mL, 80 ng/mL, fold change = treatment intensity/control intensity) is on record as −1.33 (in all cell lines.

`O=c1cc(-c2ccc(O)c(O)c2)oc2cc(O)cc(O)c12` [Luteolin, luteolin]: the Fold change with NPY5R (in two cell lines tested, amount tested 1 uM, 10 uM) is given as 1.56 (in two cell lines tested).
